# From patent US6825192B1, “Heterodiazinone derivatives” (Eisai Co., Ltd., priority 1999, dated 2004)
# Counter-ions that a name gives are not always drawn.
# System: AMPA receptor
# Assay: Inhibitory action on AMPA-inducing inflow of calcium into nerve cells (Fura2-AM)
# Assay type: cell-based
# Settings: rat cerebral cortex nerve cells on astrocytes, 1 μM MK-801, stimulated by 2 μM AMPA, fluorescence 340/380 nm
# Method: The cerebral cortex was excised from the brain of a rat on day 18 after birth and treated with trypsin and DNase, whereby the cells were dispersed. The cells were allowed to float on DMEM containing 10% serum, inoculated into a culture bottle, and their astrocytes were grown. The astrocytes were re-dispersed with trypsin and inoculated onto each well on a 96-well plate. After it was confirmed that the bottom of each well was completely covered with the astrocytes after culture for 1 week, cerebral cortex nerve cells dispersed in the same manner as above were inoculated thereon. After 24 hours, the medium was exchanged with fresh one, and after culture for further 1 week, the medium was exchanged with a medium containing 1 μM MK-801.
# The inflow of calcium into the cells was measured using Fura2-AM that is a calcium-sensitive fluorescent pigment. By treating the cells with a Fura2-AM-containing medium for 1 hour, Fura2-AM was incorporated into the cells, and the medium was exchanged with a Tyrode solution containing 1 μM MK-801. After a test compound was added, the cells were stimulated by 2 μM AMPA. The change in the amount of calcium flowing into the cells was measured as a change in the fluorescence intensity at wavelengths of 340/380 nm. The effect of a test compound was evaluated where the reaction caused by AMPA added to the Tyrode solution free of the test compound was used as the control.
row,Structure (SMILES),IC50 [µM]
1,"O=C1COC(c2ccccc2)=NN1c1ccccc1[N+](=O)[O-] [Example 37, 2-Phenyl-4-(2-nitrophenyl)-4H-1,3,4-oxadiazine-5(6H)-one]",3.94
2,"O=C1COC(c2ccccc2)=NN1c1cccnc1 [Example 39, 2-Phenyl-4-(3-pyridyl)-4H-1,3,4-oxadiazine-5(6H)-one hydrochloride]",51.4
3,"N#Cc1cccnc1N1N=C(c2ccccc2)OCC1=O [Example 40, 2-Phenyl-4-(3-cyano-2-pyridyl)-4H-1,3,4-oxadiazine-5(6H)-one hydrochloride]",34.8
4,"O=C1COC(c2ccccc2)=NN1c1ccccc1CO [Example 41, 2-Phenyl-4-(2-hydroxymethylphenyl)-4H-1,3,4-oxadiazine-5(6H)-one]",53.3
5,"N#Cc1ncccc1N1N=C(c2ccccc2)OCC1=O [Example 42, 2-Phenyl-4-(2-cyano-3-pyridyl)-4H-1,3,4-oxadiazine-5(6H)-one hydrochloride]",3.13
6,"O=C1COC(c2ccccc2)=NN1c1cccs1 [Example 43, 2-Phenyl-4-(2-thienyl)-4H-1,3,4-oxadiazine-5(6H)-one]",25.3
7,"O=C1COC(c2ccccc2)=NN1c1ccsc1 [Example 44, 2-Phenyl-4-(3-thienyl)-4H-1,3,4-oxadiazine-5(6H)-one]",22.7
8,"N#Cc1cccc(N2N=C(c3ccccc3)OCC2=O)c1 [Example 46, 2-Phenyl-4-(3-cyanophenyl)-4H-1,3,4-oxadiazine-5(6H)-one]",13.1
9,"O=C1COC(c2ccccc2O)=NN1c1ccccc1Br [Example 48, 2-(2-hydroxyphenyl)-4-(2-bromophenyl)-4H-1,3,4-oxadiazine-5(6H)-one]",1.29
10,"O=C1COC(c2ccccc2O)=NN1c1ccccc1 [Example 49, 2-(2-Hydroxyphenyl)-4-phenyl-4H-1,3,4-oxadiazine-5(6H)-one]",2.7
11,"O=C1COC(c2ccccc2)=NN1c1ccccc1O [Example 50, 2-Phenyl-4-(2-hydroxyphenyl)-4H-1,3,4-oxadiazine-5(6H)-one]",27.9
12,"O=C1COC(c2ccccc2O)=NN1c1ccccc1F [Example 51, 2-(2-Hydroxyphenyl)-4-(2-fluorophenyl)-4H-1,3,4-oxadiazine-5(6H)-one]",1.06
13,"O=C1COC(c2ccccc2O)=NN1c1ccc(F)cc1 [Example 52, 2-(2-Hydroxyphenyl)-4-(4-fluorophenyl)-4H-1,3,4-oxadiazine-5(6H)-one]",1.52
14,"O=C1COC(c2ccccc2O)=NN1c1ccc(F)cc1F [Example 53, 2-(2-Hydroxyphenyl)-4-(2,4-difluorophenyl)-4H-1,3,4-oxadiazine-5(6H)-one]",1.92
15,"O=C1COC(c2ccccc2OCc2ccncc2)=NN1c1ccccc1 [Example 55, 2-[2-(4-Pyridyl)methoxyphenyl]-4-phenyl-4H-1,3,4-oxadiazine-5(6H)-one]",10.5
16,"O=C1COC(c2ccccc2OCCN2CCOCC2)=NN1c1ccccc1 [Example 56, 2-{2-[2-(4-Morpholinyl)ethoxy]phenyl}-4-phenyl-4H-1,3,4-oxadiazine-5(6H)-one hydrochloride]",17.6
17,"O=C1COC(c2ccccc2OCc2cccnc2)=NN1c1ccccc1 [Example 58, 2-[2-(3-Pyridyl)methoxyphenyl]-4-phenyl-4H-1,3,4-oxadiazine-5(6H)-one hydrochloride]",14.3
18,"O=C1COC(c2ccccc2OCCN2CCCCC2)=NN1c1ccccc1 [Example 59, 2-{2-[2-(1-Piperidyl)ethoxy]phenyl}-4-phenyl-4H-1,3,4-oxadiazine-5(6H)-one]",8.29
19,"O=C1COC(c2ccccc2OCCN2CCCC2)=NN1c1ccccc1 [Example 60, 2-{2-[2-(1-Pyrrolidinyl)ethoxy]phenyl}-4-phenyl-4H-1,3,4-oxadiazine-5(6H)-one]",7.26
20,"CN(C)CCOc1ccccc1C1=NN(c2ccccc2)C(=O)CO1 [Example 61, 2-[2-(2-Dimethylaminoethoxy)phenyl]-4-phenyl-4H-1,3,4-oxadiazine-5(6H)-one hydrochloride]",4.61
